Key:
Type in all cases: in vivo
[1] = Experiment 6 sensory evaluation of cyclic dipeptides, “top sharp saltiness”
Outline: (§1)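 Reduced-sodium curry roux (44 g in 300 g hot water) was spiked with cyclic dipeptide solutions matching heat-treated coriander or paprika levels, at 0.5% or 1.0% (w/w) final. Three evaluators scored each sample against unspiked reduced-sodium and common roux. Mean scores were graded F to AA.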

[2] = Experiment 6 sensory evaluation of cyclic dipeptides, “middle fullness (enhanced thickness)”
Outline: as §1

[3] = Experiment 1 sensory evaluation of “boosting of flavor” (cyclic dipeptides, coriander); conditions: for “boosting of flavor” Average: cyclic dipeptide aqueous solution (concentration as in heat-treated coriander) at final 0.2% (w/w) in reduced-sodium curry roux dispersion, score 1-5; for “boosting of flavor” Evaluation: cyclic dipeptide aqueous solution at final 0.2% (w/w) in reduced-sodium curry roux dispersion, class of average score
Protocol: Flour roux was prepared by putting 20 g of flour and 30 g of beef tallow in a pan, then heating with stirring at 120° C. To this flour roux were added 10 g of sodium chloride, 10 g of sugar, 10 g of cornstarch, 5 g of curry powder and 15 g of other seasoning ingredients (vegetable and fruit extracts, yeast extract and seafood extract), and after heat-treatment to 105° C., the mixture was cooled and solidified, to form a block of common curry roux.
The sodium chloride equivalent per 100 g of this curry roux was 10.6 g.
Reduced-sodium curry roux was prepared according to the same procedure, except that the amount of sodium chloride was reduced to 7 g from the amount in the common curry roux in (1).
The sodium chloride equivalent per 100 g of this reduced-sodium curry roux was 7.7 g.
Out of the cyclic dipeptides included in the heat-treated coriander prepared in 1.1. described above, which were confirmed to be increased in 1.2. above, an aqueous solution of the respective 14 cyclic dipeptides shown in the table described below was prepared. The concentration of the cyclic dipeptide in each aqueous solution was set to be equal to its concentration in the heat-treated coriander prepared in 1.1. described above, which was estimated from the ratio of the peak area of the cyclic dipeptide to the peak area of the internal standard (47 μg/g L-lysine-^13C6 monohydrochloride) confirmed in 1.2. described above.
Two dispersions of 44 g of the reduced-sodium curry roux in (2) dispersed in 300 g of hot water were prepared.
To one of them was added the heat-treated coriander or the powdered unheated coriander prepared in 1.1. described above, or the cyclic dipeptide aqueous solution (corresponding to the heat-treated coriander) prepared in (3) above, so that the final concentration was 0.2% (w/w), and a sensory evaluation was carried out.
Forty-four grams of the common curry roux in (1) was dispersed in 300 g of hot water.
The dispersion of reduced-sodium curry roux dispersed in hot water and the dispersion of common curry roux dispersed in hot water were used as comparative controls, and the strength of the flavor was evaluated by four evaluators on the basis of the following evaluation criteria from the viewpoint of “boosting of flavor.” The term “boosting of flavor” in this experiment is an effect concerted by the combination of sodium chloride and other foodstuffs in curry roux, and is an aspect of “saltiness.” Thus, the “flavor” in this experiment can be also expressed as “saltiness.”
The average of the evaluated scores was defined as “F” when it was 1.0 or lower, “C” when it was 1.1 or higher and 1.9 or lower, “B” when it was 2.0 or higher and 2.5 or lower, “A” when it was 2.6 or higher and 2.9 or lower, and “AA” when it was 3.0 or higher.

[4] = Experiment 6 sensory evaluation of cyclic dipeptides, “boosting of last flavor (aftertaste)”
Outline: as §1

[5] = Additive amount coriander 0.5% (heat-treated coriander equivalent aqueous solution, final 0.5% (w/w)), reduced-sodium curry roux
[6] = Additive amount coriander 0.5%, reduced-sodium curry roux
[7] = heat-treated coriander equivalent aqueous solution of cyclic dipeptide, final 1.0% (w/w) in reduced-sodium curry roux dispersion
[8] = heat-treated coriander equivalent aqueous solution of cyclic dipeptide, final 1.0% (w/w) in reduced-sodium curry roux dispersion, 3 evaluators
[9] = Additive amount paprika 0.5% (heat-treated paprika equivalent aqueous solution, final 0.5% (w/w)), reduced-sodium curry roux
[10] = Additive amount paprika 0.5%, reduced-sodium curry roux
[11] = heat-treated paprika equivalent aqueous solution of cyclic dipeptide, final 1.0% (w/w) in reduced-sodium curry roux dispersion
[12] = heat-treated paprika equivalent aqueous solution of cyclic dipeptide, final 1.0% (w/w) in reduced-sodium curry roux dispersion, 3 evaluators

cyclic (Ala-Leu/Ile) [Coriander ID 32]
Top sharp saltiness Average [1, 5]: 2.1 points | Top sharp saltiness Evaluation [1, 6]: B (“B” when it was 2.0 or higher and 2.5 or lower) | Top sharp saltiness Evaluation [1, 7]: B (“B” when it was 2.0 or higher and 2.5 or lower) | Top sharp saltiness Average [1, 8]: 2.5 points | Middle fullness Average [2, 6]: 2.2 points | Middle fullness Evaluation [2, 6]: B (“B” when it was 2.0 or higher and 2.5 or lower) | Middle fullness Evaluation [2, 7]: A (“A” when it was 2.6 or higher and 2.9 or lower) | Middle fullness Average [2, 8]: 2.8 points | “boosting of flavor” Average [3]: 2.8 points | “boosting of flavor” Evaluation [3]: A (“A” when it was 2.6 or higher and 2.9 or lower) | Bosting of last flavor Average [4, 6]: 2.1 points | Bosting of last flavor Evaluation [4, 6]: B (“B” when it was 2.0 or higher and 2.5 or lower) | Bosting of last flavor Evaluation [4, 7]: AA (“AA” when it was 3.0 or higher) | Bosting of last flavor Average [4, 8]: 3.2 points

cyclic (Ala-Pro) [Coriander ID 23]
Top sharp saltiness Average [1, 9]: 2.3 points | Top sharp saltiness Evaluation [1, 10]: B (“B” when it was 2.0 or higher and 2.5 or lower) | Top sharp saltiness Evaluation [1, 11]: A (“A” when it was 2.6 or higher and 2.9 or lower) | Top sharp saltiness Average [1, 12]: 2.7 points | Middle fullness Average [2, 10]: 2.2 points | Middle fullness Evaluation [2, 10]: B (“B” when it was 2.0 or higher and 2.5 or lower) | Middle fullness Evaluation [2, 11]: AA (“AA” when it was 3.0 or higher) | Middle fullness Average [2, 12]: 3.0 points | “boosting of flavor” Average [3]: 2.0 points | “boosting of flavor” Evaluation [3]: B (“B” when it was 2.0 or higher and 2.5 or lower) | Bosting of last flavor Average [4, 10]: 2.2 points | Bosting of last flavor Evaluation [4, 10]: B (“B” when it was 2.0 or higher and 2.5 or lower) | Bosting of last flavor Evaluation [4, 11]: AA (“AA” when it was 3.0 or higher) | Bosting of last flavor Average [4, 12]: 3.0 points

cyclic (Ala-Val) [Coriander ID 27]
Top sharp saltiness Average [1, 5]: 2.3 points | Top sharp saltiness Evaluation [1, 6]: B (“B” when it was 2.0 or higher and 2.5 or lower) | Top sharp saltiness Evaluation [1, 7]: B (“B” when it was 2.0 or higher and 2.5 or lower) | Top sharp saltiness Average [1, 8]: 2.5 points | Middle fullness Average [2, 6]: 2.2 points | Middle fullness Evaluation [2, 6]: B (“B” when it was 2.0 or higher and 2.5 or lower) | Middle fullness Evaluation [2, 7]: AA (“AA” when it was 3.0 or higher) | Middle fullness Average [2, 8]: 3.0 points | “boosting of flavor” in words ([3]; added to reduced-sodium curry roux dispersion, compared with no addition, unheated coriander or common curry roux): comparable flavor to that of the dispersion of common curry roux | “boosting of flavor” Average [3]: 3.0 points | “boosting of flavor” Evaluation [3]: AA (“AA” when it was 3.0 or higher) | Bosting of last flavor Average [4, 6]: 2.3 points | Bosting of last flavor Evaluation [4, 6]: B (“B” when it was 2.0 or higher and 2.5 or lower) | Bosting of last flavor Evaluation [4, 7]: A (“A” when it was 2.6 or higher and 2.9 or lower) | Bosting of last flavor Average [4, 8]: 2.7 points

cyclic (Arg-Pro) [Coriander ID 45]
Top sharp saltiness Average [1, 5]: 2.0 points | Top sharp saltiness Evaluation [1, 6]: B (“B” when it was 2.0 or higher and 2.5 or lower) | Top sharp saltiness Evaluation [1, 7]: C (“C” when it was 1.1 or higher and 1.9 or lower) | Top sharp saltiness Average [1, 8]: 1.8 points | Middle fullness Average [2, 6]: 2.5 points | Middle fullness Evaluation [2, 6]: B (“B” when it was 2.0 or higher and 2.5 or lower) | Middle fullness Evaluation [2, 7]: B (“B” when it was 2.0 or higher and 2.5 or lower) | Middle fullness Average [2, 8]: 2.0 points | “boosting of flavor” Average [3]: 2.0 points | “boosting of flavor” Evaluation [3]: B (“B” when it was 2.0 or higher and 2.5 or lower) | Bosting of last flavor Average [4, 6]: 2.8 points | Bosting of last flavor Evaluation [4, 6]: A (“A” when it was 2.6 or higher and 2.9 or lower) | Bosting of last flavor Evaluation [4, 7]: B (“B” when it was 2.0 or higher and 2.5 or lower) | Bosting of last flavor Average [4, 8]: 2.2 points

cyclic (Gly-Val) [Coriander ID 21]
Top sharp saltiness Average [1, 9]: 2.3 points | Top sharp saltiness Evaluation [1, 10]: B (“B” when it was 2.0 or higher and 2.5 or lower) | Top sharp saltiness Evaluation [1, 11]: C (“C” when it was 1.1 or higher and 1.9 or lower) | Top sharp saltiness Average [1, 12]: 1.7 points | Middle fullness Average [2, 10]: 2.3 points | Middle fullness Evaluation [2, 10]: B (“B” when it was 2.0 or higher and 2.5 or lower) | Middle fullness Evaluation [2, 11]: B (“B” when it was 2.0 or higher and 2.5 or lower) | Middle fullness Average [2, 12]: 2.0 points | “boosting of flavor” Average [3]: 2.3 points | “boosting of flavor” Evaluation [3]: B (“B” when it was 2.0 or higher and 2.5 or lower) | Bosting of last flavor Average [4, 10]: 2.5 points | Bosting of last flavor Evaluation [4, 10]: B (“B” when it was 2.0 or higher and 2.5 or lower) | Bosting of last flavor Evaluation [4, 11]: B (“B” when it was 2.0 or higher and 2.5 or lower) | Bosting of last flavor Average [4, 12]: 2.2 points

cyclic (Leu/Ile-Val) [Coriander ID 42]
Top sharp saltiness Average [1, 5]: 2.5 points | Top sharp saltiness Evaluation [1, 6]: B (“B” when it was 2.0 or higher and 2.5 or lower) | Top sharp saltiness Evaluation [1, 7]: B (“B” when it was 2.0 or higher and 2.5 or lower) | Top sharp saltiness Average [1, 8]: 2.0 points | Middle fullness Average [2, 6]: 2.8 points | Middle fullness Evaluation [2, 6]: A (“A” when it was 2.6 or higher and 2.9 or lower) | Middle fullness Evaluation [2, 7]: A (“A” when it was 2.6 or higher and 2.9 or lower) | Middle fullness Average [2, 8]: 2.7 points | “boosting of flavor” Average [3]: 2.0 points | “boosting of flavor” Evaluation [3]: B (“B” when it was 2.0 or higher and 2.5 or lower) | Bosting of last flavor Average [4, 6]: 3.0 points | Bosting of last flavor Evaluation [4, 6]: AA (“AA” when it was 3.0 or higher) | Bosting of last flavor Evaluation [4, 7]: A (“A” when it was 2.6 or higher and 2.9 or lower) | Bosting of last flavor Average [4, 8]: 2.7 points

Reference: patent US20260231994A1, “TASTE-ENHANCING COMPOSITION, METHOD FOR PRODUCING SAME, FOOD PRODUCT, AND METHOD FOR ENHANCING TASTE OF FOOD PRODUCT” (HOUSE FOODS GROUP INC., priority 2023, published 2026)
